The test deals with T1, hGPR120 (Homo sapiens, UniProt Q5NUL3).
T1 construct: expressed in transfected cells; host or cells: CHO-K1
T1 sequence (Q5NUL3 1-361): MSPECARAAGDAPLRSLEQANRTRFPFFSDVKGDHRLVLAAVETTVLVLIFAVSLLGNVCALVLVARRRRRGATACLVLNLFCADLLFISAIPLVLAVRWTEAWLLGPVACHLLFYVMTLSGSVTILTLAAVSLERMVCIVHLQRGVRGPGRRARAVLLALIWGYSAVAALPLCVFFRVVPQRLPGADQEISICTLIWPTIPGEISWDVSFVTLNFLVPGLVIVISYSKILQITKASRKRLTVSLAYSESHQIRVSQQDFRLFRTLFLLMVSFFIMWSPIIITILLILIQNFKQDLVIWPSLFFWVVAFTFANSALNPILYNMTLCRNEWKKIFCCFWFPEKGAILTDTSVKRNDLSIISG
Description: Measurement of Activity of GPR120 Agonist (Cell-Based Assay), Calcium 5 dye fluorescence. Particulars: CHO-K1 cells expressing Ga16 and hGPR120. Summed up: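 Gα16/hGPR120 CHO-K1; 18 h plating, 37 °C, 5% CO2; Calcium 5 dye load 1 h; agonist serial dilution, 0.5% DMSO final; fluor Ex485/Em525; response as % of 1% DMSO vehicle.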

The EC50 is the concentration needed to bring the measured effect to its halfway point.

`CN(CCCC(=O)O)c1c(F)cc(-c2cccnc2SC2CCC2)cc1F` [Example 195, 4-{[4-(2-cyclobutylsulfanyl-pyridin-3-yl)-2,6-difluoro-phenyl]-methyl-amino}-butyric acid]: the EC50 is less than 200 nM.

Take `O=C(O)CC1CCN(c2c(F)cc(-n3ccc4cccc(Cl)c43)cc2F)CC1` [Example 481, 2-[1-[4-(7-chloroindol-1-yl)-2,6-difluoro-phenyl]-4-piperidyl]acetic acid]: the concentration giving a half-maximal response (EC50) lay within 2000 to 20000 nM.

Turning to `CN(CCCC(=O)O)c1c(F)cc(-c2occc2COCC2CC2)cc1F` [Example 470, 4-[4-[3-(cyclopropylmethoxymethyl)-2-furyl]-2,6-difluoro-N-methyl-anilino]butanoic acid], the 50% effective concentration (EC50) was 200 to 2000 nM.

On to `CC(CCCC(=O)O)c1c(F)cc(-c2cccnc2OC2CCCC2)cc1F` (stereo not shown) [Example 51, 5-[4-(2-cyclopentoxy-3-pyridyl)-2,6-difluoro-phenyl]hexanoic acid], for which the EC50 was less than 200 nM.

On to `O=C(O)CC1CCN(c2c(F)cc(-c3nccc(Oc4ccc(F)c(F)c4)n3)cc2F)CC1` [Example 517, 2-[1-[4-[4-(3,4-difluorophenoxy)pyrimidin-2-yl]-2,6-difluoro-phenyl]-4-piperidyl]acetic acid], for which the EC50 is less than 200 nM.

As to `CC(CCCC(=O)O)c1c(F)cc(-c2cccc3c2OC(F)(F)O3)cc1F` (stereo not shown) [Example 171, 5-[4-(2,2-difluoro-benzo[1,3]dioxol-4-yl)-2,6-difluoro-phenyl]-hexanoic acid], the concentration for a half-maximal effect (EC50) was less than 200 nM.

For `O=C(O)CC1CCN(c2c(F)cc(-c3cccc(CC4CCCC4)n3)cc2F)CC1` [Example 376, 2-[1-[4-[6-(cyclopentylmethyl)-2-pyridyl]-2,6-difluoro-phenyl]-4-piperidyl]acetic acid], the EC50 lay within 200 to 2000 nM.

Take `CC(CCCC(=O)O)c1c(F)cc(-c2cccnc2SC2CCCC2)cc1F` (stereo not shown) [Example 49, 5-[4-(2-cyclopentylsulfanyl-3-pyridyl)-2,6-difluoro-phenyl]hexanoic acid]: the concentration giving a half-maximal response (EC50) was less than 200 nM.

Regarding `CC(C)Nc1cncc(-c2cc(F)c(N3CCC(CC(=O)O)CC3)c(F)c2)n1` [Example 354, 2-[1-[2,6-difluoro-4-[6-(isopropylamino)pyrazin-2-yl]phenyl]-4-piperidyl]acetic acid], the EC50 was 200 to 2000 nM.

With `CC(C)COc1nc(-c2cc(F)c(N3CCC(CC(=O)O)CC3)c(F)c2)ncc1F` [Example 597, {1-[2,6-difluoro-4-(5-fluoro-4-isobutoxy-pyrimidin-2-yl)-phenyl]-piperidin-4-yl}-acetic acid], the concentration for a half-maximal effect (EC50) lay in the range of 200 to 2000 nM.

With `CN(CCCC(=O)O)c1c(F)cc(-c2cncc(OC3CCC3)n2)cc1F` [Example 488, 4-[4-[6-(cyclobutoxy)pyrazin-2-yl]-2,6-difluoro-N-methyl-anilino]butanoic acid], the concentration for a half-maximal effect (EC50) was less than 200 nM.

As to `CN(CCCC(=O)O)c1c(F)cc(-c2ccc(Cl)c(OC3CCC3)n2)cc1F` [Example 531, 4-{[4-(5-chloro-6-cyclobutoxy-pyridin-2-yl)-2,6-difluoro-phenyl]-methyl-amino}-butyric acid], the EC50 was in the range of 200 to 2000 nM.

As to `Cc1cc(-c2cc(F)c(C(C)CCCC(=O)O)c(F)c2)nc(OC2CCC2)n1` (stereo not shown) [Example 418, 5-[4-(2-cyclobutoxy-6-methyl-pyrimidin-4-yl)-2,6-difluoro-phenyl]-hexanoic acid], the concentration for a half-maximal effect (EC50) is less than 200 nM.

`Oc1cc(CSc2ccc(-c3cccnc3OC3CCCC3)cc2)on1` [Example 81, 5-[[4-[2-(cyclopentoxy)-3-pyridyl]phenyl]sulfanylmethyl]isoxazol-3-ol]: the half-maximal effective concentration (EC50) is less than 200 nM.

Regarding `O=C(O)CCCOc1c(F)cc(-n2ccc3cc(F)ccc32)cc1F` [Example 465, 4-[2,6-difluoro-4-(5-fluoroindol-1-yl)phenoxy]butanoic acid], the EC50 is less than 200 nM.

On to `Oc1cc(CCOc2c(F)cc(-c3cccnc3OC3CCCC3)cc2F)on1` [Example 89, 5-[2-[4-[2-(cyclopentoxy)-3-pyridyl]-2,6-difluoro-phenoxy]ethyl]isoxazol-3-ol], for which the 50% effective concentration (EC50) was less than 200 nM.

With `O=C(O)CC1CCN(c2c(F)cc(-c3ccc(F)c(OC4CCC4)c3)cc2F)CC1` [Example 304, 2-[1-[4-[3-(cyclobutoxy)-4-fluoro-phenyl]-2,6-difluoro-phenyl]-4-piperidyl]acetic acid], the EC50 fell in the range of 200 to 2000 nM.

As for `CC(C)Oc1cncc(-c2cc(F)c(N3CCC(CC(=O)O)CC3)c(F)c2)n1` [Example 339, 2-[1-[2,6-difluoro-4-(6-isopropoxypyrazin-2-yl)phenyl]-4-piperidyl]acetic acid], the 50% effective concentration (EC50) was less than 200 nM.

Regarding `O=C(O)CCCOc1c(F)cc(-c2csc(OCC3CC3)n2)cc1Cl` [Example 427, 4-[2-chloro-4-(2-cyclopropylmethoxy-thiazol-4-yl)-6-fluoro-phenoxy]-butyric acid], the EC50 was less than 200 nM.

`CCCOc1ccnc(-c2cc(F)c(N3CCC(CC(=O)O)C3)c(F)c2)n1` (stereo not shown) [Example 499, 2-{1-[2,6-difluoro-4-(4-propoxy-pyrimidin-2-yl)phenyl]pyrrolidin-3-yl}acetic acid]: the EC50 was less than 200 nM.

Take `CCCOc1cccc(-c2cc(F)c(OCCCC(=O)O)c(F)c2)c1OCCC` [Example 454, 4-[4-(2,3-dipropoxyphenyl)-2,6-difluoro-phenoxy]butanoic acid]: the concentration for a half-maximal effect (EC50) is less than 200 nM.

In the case of `CCN(CCCC(=O)O)c1c(F)cc(-c2cccnc2OC(C)C)cc1F` [Example 226, 4-{[2,6-difluoro-4-(2-isopropoxy-pyridin-3-yl)-phenyl]-ethyl-amino}-butyric acid], the EC50 lay in the range of 200 to 2000 nM.

Consider `O=C(O)CCCOc1ccc(-c2cccc(SC3CCC3)n2)cc1F` [Example 540, 4-[4-(6-cyclobutylsulfanyl-pyridin-2-yl)-2-fluoro-phenoxy]-butyric acid], for which the EC50 is less than 200 nM.

For `CC(CCCC(=O)O)c1ccc(-c2cccc(OC3CCC3)n2)cc1` (stereo not shown) [Example 40, 5-[4-(6-cyclobutoxy-2-pyridyl)-phenyl]hexanoic acid], the EC50 is less than 200 nM.

Consider `O=C(O)CC1CN(c2c(F)cc(-c3cccnc3OC3CCCC3)cc2F)C1` [Example 113, 2-[1-[4-[2-(cyclopentoxy)-3-pyridyl]-2,6-difluoro-phenyl]azetidin-3-yl]acetic acid], for which the EC50 was less than 200 nM.

Turning to `C[C@H](CCCC(=O)O)c1c(F)cc(-c2cccnc2SC2CCC2)cc1F` [Example 227, (R)-5-[4-(2-cyclobutylsulfanyl-pyridin-3-yl)-2,6-difluoro-phenyl]-hexanoic acid], the concentration for a half-maximal effect (EC50) was less than 200 nM.

For the compound `O=C(O)CC1CCN(c2c(F)cc(-c3cncc(N4CCCC4)n3)cc2F)CC1` [Example 353, 2-[1-[2,6-difluoro-4-(6-pyrrolidin-1-ylpyrazin-2-yl)phenyl]-4-piperidyl]acetic acid], the EC50 was in the range of 2000 to 20000 nM.

In the case of `CC(C)(C)Sc1cccc(-c2ccc3c(c2)CCC(CCC(=O)O)O3)n1` (stereo not shown) [Example 451, 3-[6-(6-tert-butylsulfanyl-2-pyridyl)chroman-2-yl]propanoic acid], the EC50 is less than 200 nM.

Take `Cc1cc(OCC2CC2)nc(-c2cc(F)c(OCCCC(=O)O)c(Cl)c2)c1` [Example 435, 4-[2-chloro-4-(6-cyclopropylmethoxy-4-methyl-pyridin-2-yl)-6-fluoro-phenoxy]-butyric acid]: the EC50 is less than 200 nM.

Regarding `O=C(O)CC1CCN(c2c(F)cc(-c3nc(Oc4ccc(F)cc4)cc(C(F)(F)F)n3)cc2F)CC1` [Example 619, (1-{2,6-difluoro-4-[4-(4-fluoro-phenoxy)-6-trifluoromethyl-pyrimidin-2-yl]-phenyl}-piperidin-4-yl)-acetic acid], the EC50 was 2000 to 20000 nM.

Take `CCCOc1cccc(-c2cc(F)c(N3CCC(CC(=O)O)CC3)c(F)c2)n1` [Example 295, 2-[1-[2,6-difluoro-4-(6-propoxy-2-pyridyl)phenyl]-4-piperidyl]acetic acid]: the concentration for a half-maximal effect (EC50) was less than 200 nM.

`O=C(O)CC1CCN(c2ccc(-c3cccnc3OC3CCCC3)cc2F)CC1` [Example 139, 2-[1-[4-[2-(cyclopentoxy)-3-pyridyl]-2-fluoro-phenyl]-4-piperidyl]acetic acid]: the half-maximal effective concentration (EC50) was 200 to 2000 nM.

With `CC(Cc1cc(O)no1)c1c(F)cc(-c2cccnc2OC2CCCC2)cc1F` (stereo not shown) [Example 88, 5-[2-[4-[2-(cyclopentoxy)-3-pyridyl]-2,6-difluoro-phenyl]propyl]isoxazol-3-ol], the concentration giving a half-maximal response (EC50) was less than 200 nM.

On to `O=C(O)CC1CCN(c2c(F)cc(-c3cccc4c3OC(F)(F)O4)cc2F)CC1` [Example 439, {1-[4-(2,2-difluoro-benzo[1,3]dioxol-4-yl)-2,6-difluoro-phenyl]-piperidin-4-yl}-acetic acid], for which the EC50 was in the range of 200 to 2000 nM.

For `O=C(O)CCCC1(c2c(F)cc(-c3cccnc3OCC3CCC3)cc2F)CC1` [Example 169, 4-{1-[4-(2-cyclobutylmethoxy-pyridin-3-yl)-2,6-difluoro-phenyl]-cyclopropyl}-butyric acid], the 50% effective concentration (EC50) lay within 200 to 2000 nM.

On to `CN(CCCC(=O)O)c1c(F)cc(-c2ccccc2NC2CCCC2)cc1F` [Example 215, 4-[(2′-cyclopentylamino-3,5-difluoro-biphenyl-4-yl)-methyl-amino]-butyric acid], for which the EC50 was less than 200 nM.

For `CCOc1cncc(-c2cc(F)c(N3CCC(CC(=O)O)C3)c(F)c2)n1` (stereo not shown) [Example 585, {1-[4-(6-ethoxy-pyrazin-2-yl)-2,6-difluoro-phenyl]-pyrrolidin-3-yl}-acetic acid], the concentration giving a half-maximal response (EC50) was less than 200 nM.
